This is an account of results in US7179808B2 (Janssen Pharmaceutica N.V., priority 2002, dated 2007).

Structures can show the parent of a compound that is named as a salt.

Data set [1] has as its target T1, NADPH-oxidase (Homo sapiens, UniProt P04839).
T1 construct: endogenous in cells; host or cells: human neutrophils isolated from the buffy coat of one unit of blood
T1 sequence (P04839 1-570): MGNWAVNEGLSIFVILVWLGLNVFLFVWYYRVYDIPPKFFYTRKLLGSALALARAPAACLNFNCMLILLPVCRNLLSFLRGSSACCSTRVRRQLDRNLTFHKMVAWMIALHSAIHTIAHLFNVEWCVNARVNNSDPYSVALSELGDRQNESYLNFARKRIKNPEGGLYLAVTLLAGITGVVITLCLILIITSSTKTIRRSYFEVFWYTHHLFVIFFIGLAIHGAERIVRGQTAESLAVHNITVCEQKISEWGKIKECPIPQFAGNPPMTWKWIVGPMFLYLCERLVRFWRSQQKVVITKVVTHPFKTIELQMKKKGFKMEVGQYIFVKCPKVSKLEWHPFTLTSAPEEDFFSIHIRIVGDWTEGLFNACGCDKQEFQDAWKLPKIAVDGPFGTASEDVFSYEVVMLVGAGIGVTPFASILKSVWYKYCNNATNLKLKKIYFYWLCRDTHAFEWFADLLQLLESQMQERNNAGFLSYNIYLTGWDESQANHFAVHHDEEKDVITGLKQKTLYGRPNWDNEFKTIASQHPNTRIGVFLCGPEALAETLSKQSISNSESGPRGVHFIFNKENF
T1 sequence (P13498 1-195 partner): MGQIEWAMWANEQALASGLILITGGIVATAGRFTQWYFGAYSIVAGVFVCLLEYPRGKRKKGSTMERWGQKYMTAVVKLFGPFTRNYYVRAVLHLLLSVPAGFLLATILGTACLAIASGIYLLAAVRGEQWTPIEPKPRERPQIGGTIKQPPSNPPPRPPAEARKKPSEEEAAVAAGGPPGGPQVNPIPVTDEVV
The data set is described as follows: Oxidase Inhibition Assay (PMA-stimulated superoxide-mediated reduction of Cytochrome c, absorbance at 550 nm). The format is cell-based. To be noted: for IC50: human neutrophils, 0.5 μM PMA, Cytochrome c reduction at 550 nm. Here is the method: Whole cells (human neutrophils) are incubated with a pro-inflammatory agonist phorbol myristate acetate (PMA) in the presence or absence of test compound to measure the superoxide-mediated reduction of Cytochrome c at 550 nm. Inhibition of the oxidase is determined by a decreased absorbance at 550 nm, in response to test compound, relative to the absorbance seen with a vehicle control.
The buffy coat from one unit of blood is split evenly into four 50 mL tubes. To each tube 30 mL 3% Dextran (in 0.9% NaCl) is added and the tubes are inverted to mix. Tubes are allowed to sit undisturbed for 25 minutes. The resulting supernatant is recovered into four fresh tubes and centrifuged for 10 minutes at 600×g, 4° C. The supernatant is discarded and pellets are resuspended in 35 mL 0.9% saline. 10 mL Ficoll-Paque PLUS (Pharmacia Biotech AB) is layered beneath the cell suspension and centrifuged at 600×g for 40 minutes at room temperature. The supernatant is again discarded and tubes are tapped to loosen the resulting pellets. 20 mL 0.2% ice cold saline is added for 30 seconds followed by 20 mL 1.6% ice cold saline to lyse the remaining erythrocytes in the pellets. The pellets are centrifuged for 10 minutes at 600×g, 4° C., and the supernatant is discarded. The neutrophil pellets are resuspended in HBSS-glucose buffer (1 mg/mL), adding 2.5 mL to each tube for a total volume of 10 mL. The cell suspension is then counted on a hemocytometer.
The cell suspension is diluted to a concentration of 5×10^6/mL in HBSS-glucose and treated with 1 μg/mL Cytochalasin B (5 mg/mL DMSO) for 10 minutes at 37° C. in a shaking water bath. Cells are diluted to 6×10^5 cells/mL in 92 μM Cytochrome c for a final concentration of 5×10^4 cells/well.
The NADPH-oxidase assay is run on a Biomek 2000 workstation. The workstation adds 2.5 μl compound per well from source plates plus 12.5 μL per well 4 μM PMA (agonist). This volume is brought up to 100 μL total per well in the assay plates upon the addition of the prepared cells (85 μL). The final concentration of drug is 25 μM and PMA is 0.5 μM under these conditions.
The QC curve is a dose-responsive curve (from about 31.25 nM to about 4000 nM) for competitive binding against a known oxidase inhibitor such as DPI (diphenylene iodonium chloride). The following format was used for each compound tested:
The plates are incubated for 1 hour at 37° C. without CO2. The plates are then incubated at room temperature for 30 minutes and the absorbance is read at 550 nm.

Data set [2] has as its system ROS. As to conditions: human patients with rheumatoid arthritis and osteoarthritis, pharmacological doses; cited from earlier work.
The test system of data set [3] is mice with potassium peroxochromate arthritis. As to conditions: cited from earlier work.

The IC50 is the midpoint of a concentration-inhibition curve. A high value points to weaker potency in that assay. In data set [1], `Clc1ccc(-c2csc(COc3cccc(CNCCN4CCOCC4)c3)n2)cc1` [Cpd 7] returned an IC50 of 1.47 µM. `CN1C(C(=O)Nc2ccccn2)=C(O)c2ccccc2S1(=O)=O` [Piroxicam]: the “reduce levels of ROS” value in data set [2] is on record as 25%.

The melting point is the temperature, or range, at which the solid turns liquid. As to `Clc1ccc(-c2csc(COc3cccc(CNC4CC4)c3)n2)cc1` [Cpd 5, 3-[[4-(4-chlorophenyl)-2-thiazolyl]methoxy]-N-cyclopropyl-benzenemethanamine], the melting point is 80.5 to 81.5 °C. In addition, inhibition in data set [1] was half-maximal at 3.45 µM (IC50). As usually defined, the inhibition is the drop in the measured response relative to a control, in per cent. The low end stands for a weak effect, the high end for a strong effect. On to `c1ccc2c(c1)[I+]c1ccccc1-2` [DPI, diphenylene iodoniumchloride], for which the inhibition at 10 µM in data set [1] (QC wells G–H, 2.5 μL of 10 μM DPI, at 250 nm (so in the source), agonist added) was around 70%. Moreover, the “inhibition of the arthritis” value in data set [3] (10 mmol/kg) is “Complete inhibition”. Also, in data set [3] (daily doses of 2.8 μmol/kg), the inhibited the arthritis is listed as 50%. `Clc1ccc(-c2csc(COc3ccc(CNC4CCCC4)cc3)n2)cc1` [Cpd 10, 4-[[4-(4-chlorophenyl)-2-thiazolyl]methoxy]-N-cyclopentyl-benzenemethanamine] displayed a melting point of 125.5 to 126.5 °C. This compound came in with an IC50 in data set [1] of 0.7 µM.

For the compound `NCc1cccc(OCc2nc(-c3ccc(Cl)cc3)cs2)c1` [Cpd 11, 3-[[4-(4-chlorophenyl)-2-thiazolyl]methoxy]-benzenemethanamine], the melting point is 117 to 118.5 °C. For the same compound, inhibition in data set [1] was half-maximal at 1.9 µM (IC50). The matching figures for `Clc1ccc(-c2csc(COc3cccc(CNC4CCCCC4)c3)n2)cc1` [Cpd 4, 3-[[4-(4-chlorophenyl)-2-thiazolyl]methoxy]-N-cyclohexyl-benzenemethanamine]: 85 to 86 °C and 0.13 µM. Consider `CCCNCc1cccc(OCc2nc(-c3ccc(Cl)cc3)cs2)c1` [Cpd 1, 3-[[4-(4-chlorophenyl)-2-thiazolyl]methoxy]-N-propyl-benzenemethanamine], for which the melting point lay within 63.5 to 64.5 °C. The compound also had an IC50 in data set [1] of 1.65 µM.

For the compound `CCCCNCc1cccc(OCc2nc(-c3ccc(Cl)cc3)cs2)c1` [Cpd 2, 3-[[4-(4-chlorophenyl)-2-thiazolyl]methoxy]-N-(3-methylpropyl)-benzenemethanamine], the melting point lay in the range of 86 to 88 °C.

The compound `CN1CCCC1CNCc1cccc(OCc2nc(-c3ccc(Cl)cc3)cs2)c1` (centres unmarked) [Cpd 6, N-[[3-[[4-(4-chlorophenyl)-2-thiazolyl]methoxy]phenyl]methyl]-1-methyl-2-pyrrolidinemethanamine.(HCl)2] registered an IC50 in data set [1] of 10 µM. That is a double-digit micromolar value. Compound `COc1ccc2[nH]cc(CCNCc3cccc(OCc4nc(-c5ccc(Cl)cc5)cs4)c3)c2c1` [Cpd 9, N-[[3-[[4-(4-chlorophenyl)-2-thiazolyl]methoxy]phenyl]methyl]-5-methoxy-1H-indole-3-ethanamine.HCl] registered an IC50 in data set [1] of 0.3 µM. The compound `CC(C)CNCc1cccc(OCc2nc(-c3ccc(Cl)cc3)cs2)c1` registered an IC50 in data set [1] of 2.5 µM. Against the preceding compound, the IC50 is about 8.3-fold higher.

`CCCNCc1ccc(OCc2nc(-c3ccc(Cl)cc3)cs2)cc1` [Cpd 1a, 4-[[4-(4-chlorophenyl)-2-thiazolyl]methoxy]-N-propyl-benzenemethanamine] registered a melting point of 63.5 to 64.5 °C. Compound `Clc1ccc(-c2csc(COc3cccc(CNC4CCCC4)c3)n2)cc1` [Cpd 3, 3-[[4-(4-chlorophenyl)-2-thiazolyl]methoxy]-N-cyclopentyl-benzenemethanamine] yielded a melting point of 94 to 94.5 °C. In addition, in data set [1], the midpoint of inhibition, the IC50, lay at 0.04 µM. For the compound “4-(4-chlorophenyl)-2-[[3-[(5-methyl-2-furanyl)methyl]phenoxy]methyl]-thiazole [Cpd 8]”, in data set [1], the IC50 worked out at 0.7 µM.
